# Test results published in PubChem BioAssay (NCI).
#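 Method: 48-hour compound exposure of cells in 96-well plates, five concentrations, linear interpolation of endpoints. GI50: concentration for 50% inhibition of growth. Definition used: TGI = concentration required for complete inhibition of growth.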
# How the values were obtained:
# Test in all cases: inhibition of tumour cell growth, NCI panel, 48 h
# [1] = system: DU-145 prostate
# [2] = system: OVCAR-3 ovarian
# [3] = system: SNB-75 CNS
# [4] = system: UACC-257 melanoma
# [5] = system: OVCAR-4 ovarian
# [6] = system: HCT-116 colon
# [7] = system: SR leukemia
# [8] = system: IGROV1 ovarian
# [9] = system: HCC-2998 colon
# [10] = system: LOX IMVI melanoma
# [11] = system: CCRF-CEM leukemia
# [12] = system: RPMI-8226 leukemia
# [13] = system: SF-295 CNS
# [14] = system: HCT-15 colon
# [15] = system: HS 578T breast
# [16] = system: CAKI-1 renal
# [17] = system: TK-10 renal
# [18] = system: SK-MEL-5 melanoma
# [19] = system: SK-OV-3 ovarian
# [20] = system: ACHN renal
# [21] = system: K-562 leukemia
# [22] = system: SW-620 colon
# [23] = system: EKVX NSCLC
# [24] = system: OVCAR-8 ovarian
# [25] = system: MCF7 breast
# [26] = system: U251 CNS
# [27] = system: HOP-92 NSCLC
# [28] = system: A498 renal
# [29] = system: NCI/ADR-RES ovarian
# [30] = system: T-47D breast
# [31] = system: KM12 colon
# [32] = system: SNB-19 CNS
# [33] = system: HL-60(TB) leukemia
# [34] = system: SF-268 CNS
# [35] = system: NCI-H226 lung
# [36] = system: MDA-MB-435
# [37] = system: OVCAR-5 ovarian
# [38] = system: MOLT-4 leukemia
# [39] = system: NCI-H522 lung
# [40] = system: NCI-H23 lung
# [41] = system: 786-0 renal
# [42] = system: COLO 205 colon
# [43] = system: MDA-MB-231 breast
# [44] = system: HT29 colon
# [45] = system: SN12C renal
# [46] = system: PC-3 prostate
# [47] = system: RXF 393 renal
# [48] = system: SF-539 CNS
# [49] = system: MDA-MB-468 breast
# [50] = system: SK-MEL-2 melanoma
# [51] = system: UACC-62 melanoma
# [52] = system: NCI-H460 lung
# [53] = system: HOP-62 NSCLC
# [54] = system: M14 melanoma
# [55] = system: BT-549 breast
# [56] = system: SK-MEL-28 melanoma
# [57] = system: A549 NSCLC
# [58] = system: UO-31 renal
# [59] = system: MALME-3M melanoma
compound,measurement,setting,value
NS(=O)(=O)c1ccc(NC(=O)CSc2ccc(-c3ccc(Cl)cc3)nn2)c(Br)c1,GI50,[1],12.1 µM
same,TGI,[1],27.2 µM
same,GI50,[2],12.9 µM
same,TGI,[2],27.6 µM
same,GI50,[3],1.79 µM
same,TGI,[3],15 µM
same,GI50,[4],31.4 µM
same,TGI,[4],> 100 µM
same,GI50,[5],10.4 µM
same,TGI,[5],42.6 µM
same,GI50,[6],10.3 µM
same,TGI,[6],29.6 µM
same,GI50,[7],50.5 µM
same,TGI,[7],> 100 µM
same,GI50,[8],23.3 µM
same,TGI,[8],76.4 µM
same,GI50,[9],11 µM
same,TGI,[9],40.4 µM
same,GI50,[10],10.4 µM
same,TGI,[10],24.2 µM
same,GI50,[11],> 100 µM
same,TGI,[11],> 100 µM
same,GI50,[12],96.9 µM
same,TGI,[12],> 100 µM
same,GI50,[13],5.13 µM
same,TGI,[13],16.1 µM
same,GI50,[14],11.8 µM
same,TGI,[14],25.8 µM
same,GI50,[15],2.8 µM
same,TGI,[15],12.4 µM
same,GI50,[16],11 µM
same,TGI,[16],24.4 µM
same,GI50,[17],18 µM
same,TGI,[17],38.9 µM
same,GI50,[18],10.2 µM
same,TGI,[18],21.9 µM
same,GI50,[19],4.39 µM
same,TGI,[19],15.1 µM
same,GI50,[20],6.92 µM
same,TGI,[20],19.6 µM
same,GI50,[21],20.4 µM
same,TGI,[21],> 100 µM
same,GI50,[22],32.8 µM
same,TGI,[22],> 100 µM
same,GI50,[23],11 µM
same,TGI,[23],25.8 µM
same,GI50,[24],10.3 µM
same,TGI,[24],24.7 µM
same,GI50,[25],10.1 µM
same,TGI,[25],25.3 µM
same,GI50,[26],5.15 µM
same,TGI,[26],21.7 µM
same,GI50,[27],3.96 µM
same,TGI,[27],19.2 µM
same,GI50,[28],14 µM
same,TGI,[28],28 µM
same,GI50,[29],7.75 µM
same,TGI,[29],> 100 µM
same,GI50,[30],4.59 µM
same,TGI,[30],21.8 µM
same,GI50,[31],36.3 µM
same,TGI,[31],> 100 µM
same,GI50,[32],3.75 µM
same,TGI,[32],14.9 µM
same,GI50,[33],50.9 µM
same,TGI,[33],> 100 µM
same,GI50,[34],7.22 µM
same,TGI,[34],34.4 µM
same,GI50,[35],2.62 µM
same,TGI,[35],9.4 µM
same,GI50,[36],32.6 µM
same,TGI,[36],> 100 µM
same,GI50,[37],17.2 µM
same,TGI,[37],51 µM
same,GI50,[38],48.3 µM
same,TGI,[38],> 100 µM
same,GI50,[39],10.5 µM
same,TGI,[39],26.3 µM
same,GI50,[40],11.1 µM
same,TGI,[40],23.2 µM
same,GI50,[41],11.3 µM
same,TGI,[41],25.6 µM
same,GI50,[42],20.7 µM
same,TGI,[42],65.5 µM
same,GI50,[43],3.7 µM
same,TGI,[43],14.6 µM
same,GI50,[44],15.9 µM
same,TGI,[44],46.8 µM
same,GI50,[45],26.1 µM
same,TGI,[45],83.3 µM
same,GI50,[46],8.97 µM
same,TGI,[46],49.2 µM
same,GI50,[47],2.99 µM
same,TGI,[47],13.8 µM
same,GI50,[48],4.15 µM
same,TGI,[48],15.8 µM
same,GI50,[49],8.32 µM
same,TGI,[49],25 µM
same,GI50,[50],15.8 µM
same,TGI,[50],32 µM
same,GI50,[51],13.7 µM
same,TGI,[51],34.1 µM
same,GI50,[52],7.22 µM
same,TGI,[52],22.3 µM
same,GI50,[53],2.93 µM
same,TGI,[53],10.8 µM
same,GI50,[54],32.4 µM
same,TGI,[54],> 100 µM
same,GI50,[55],14.1 µM
same,TGI,[55],44.3 µM
same,GI50,[56],12.3 µM
same,TGI,[56],28.8 µM
same,GI50,[57],11.7 µM
same,TGI,[57],31.8 µM
same,GI50,[58],29.5 µM
same,TGI,[58],> 100 µM
same,GI50,[59],9.36 µM
same,TGI,[59],22.4 µM
